Experimental data published in patent publication US20090069324A1, “CHEMICAL INHIBITORS OF BFL-1 AND RELATED METHODS” (The Burnham Institute, priority 2007, published 2009).
Several values for one entry are separate records, joined by “and”; a condition that tells them apart may be missing. Equal entries are not always repeated.

Assays:
[1] = molecular target: T1, Bfl-1 (Homo sapiens, UniProt Q16548); assay: Bfl-1 fluorescence polarization assay (FPA/FP), competition with FITC-Bid BH3 peptide; type: binding; conditions: for Bfl-1 FP assay, activity in words: Bfl-1/FITC-Bid
T1 construct: lacking their C-terminal transmembrane domains (approximately last 20 amino-acids); made in house; host or cells: XL-1 Blue cells (E. coli), pGEX 4T-1
T1 sequence (Q16548 1-155 limits assumed): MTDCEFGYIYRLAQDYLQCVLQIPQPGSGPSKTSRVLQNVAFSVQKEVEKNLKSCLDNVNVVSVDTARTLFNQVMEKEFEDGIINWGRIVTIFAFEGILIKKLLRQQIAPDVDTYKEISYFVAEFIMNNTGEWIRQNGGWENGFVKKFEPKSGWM
Method: Fluorescence polarization assays (FPA). To determine the binding affinity of anti-apoptotic Bcl-2 polypeptides to FITC-conjugated Bid BH3 peptide, fluorescence polarization assays (FPAs) were performed according to published procedures (Zhai et al., Biochem. J. 376:229-236 (2003)). […] Fluorescence polarization was measured after 10 min using an Analyst™ AD Assay Detection System (LJL Biosystem, Sunnyvale, Calif.) in phosphate-buffered saline (PBS) (pH 7.4). The IC50 determinations were performed using GraphPad Prism software (GraphPad, Inc., San Diego, Calif.).
Competition assays. Using the same procedure outlined above, 100 nM of GST-Bfl-1 protein were incubated with the compounds at 50 μM concentration for 30 min. Then, 5 nM of FITC-Bid BH3 peptide was added. Fluorescence polarization was measured after 10 min. […]

[2] = molecular target: T1, Bfl-1; assay: Bfl-1 TR-FRET assay (FITC-Bid, Tb-anti-GST antibody); type: binding; conditions: for Bfl-1 TR-FRET assay, activity in words: Bfl-1/FITC-Bid
Method: TR-FRET assay. For confirmation of FPA results, a TR-FRET assay utilizing terbium- (Tb-) labeled anti-GST antibody (Th-Ab) was developed. […] The reaction mixture was preincubated for 1 h, and TR-fluorescence (TRF) was measured on an M5 plate reader (Molecular Devices) using excitation at 340 nm and emission at […]. The measurements were averaged from 5 readings during 1 ms after an initial delay 0.1 ms. TR-FRET signal was calculated as the ratio of TR-Fluorescence at 520 nm to TR-Fluorescence at […].
For Bfl-1 TR-FRET assays, Bfl-1 protein and FITC-Bid peptide (FITC-Ahx-[…]) (SEQ ID NO: 1) were utilized. Terbium-anti-GST antibody (Tb-anti-GST Ab) was obtained from Invitrogen (San Diego Calif.). The assay buffer contained 25 mM Bis-Tris, pH 7.0, 1 mM TCEP, and 0.005% Tween 20. The Tb-Ab buffer contained 2.5 nM Tb-anti-GST antibody in assay buffer. The Bfl-1/Th-Ab working solution contained 5 nM Bfl-1 in Th-Ab assay buffer. The solution was prepared fresh and kept on ice prior to use. The FITC-Bid working solution contained 5.6 nM FITC-Bid in assay buffer.
For the Bfl-1 TR-FRET dose-response screening protocol, dose-response curves contained 10 concentrations of compounds obtained using 2-fold serial dilution. Compounds were serially diluted in 100% DMSO, and then diluted with water to 10% final DMSO concentration. A 4 μl aliquot of compounds in 10% DMSO was transferred into columns 3-22 of Greiner 384-well white small-volume plates. Columns 1-2 and 23-24 contained 4 μL of 10% DMSO.
Columns 1-2 were reserved for positive controls, and 8 μL of Th-Ab buffer was added using a WellMate bulk dispenser (Matrix). An aliquot of 8 μL of Bfl-1/Th-Ab working solution was added to columns 3-24 of Greiner 384 well white plates using a WellMate bulk dispenser (Matrix). Columns 23-24 represented negative control wells. Plates were incubated for 1 h at 4° C. An 8 μL aliquot of freshly prepared FITC-Bid working solution was added to the whole plate using WellMate bulk dispenser (Matrix). Plates were incubated for 4 h at room temperature protected from direct light. Fluorescence was measured on the M5 plate reader (excitation: 340 nm, emission: 490 and 520 nm, cutoff: 475 and 515 nm, respectively) in Time Resolved (TR) mode with signal integrated for 1 ms after initial delay of 0.1 ms. TR-FRET signal was calculated as the ratio of TR-Fluorescence at 520 nm to TR-Fluorescence at 490 nm. Data analysis was performed using a sigmoidal dose-response equation through non-linear regression.

[3] = Tables 7-8, Avg where the cell lists several determinations, read-out: Bfl-1 FPA IC50
[4] = Tables 7-8, Avg where the cell lists several determinations, read-out: Bfl-1 TR-FRET IC50
[5] = Tables 7-8, single values listed before the Avg, read-out: Bfl-1 FPA IC50 (uM), individual determinations
[6] = Tables 7-8, single values listed before the Avg, read-out: Bfl-1 TR-FRET IC50 (uM), individual determinations
[7] = Tables 7-8, Avg where the cell lists several determinations
[8] = Tables 3-5, read-out: Bfl-1 TR FRET IC50
[9] = Tables 3-5, read-out: Bfl-1 FP IC50

Row | SMILES | IC50 [1, 3] [µM] | IC50 [2, 4] [µM] | IC50 [2, 8] [µM] | IC50 [1, 9] [µM] | also measured
1 | CC(C)c1nnc(NC(=O)CCS(=O)(=O)c2nc(-c3cccs3)cc(C(F)(F)F)n2)s1 [ASN05990586] | 11.3 | 5.3 |  |  | 
2 | COCC(C)NC(=O)CCS(=O)(=O)c1nc(-c2ccc(OC)cc2)cc(C(F)(F)F)n1 (stereo not drawn) [BAS03664947] | 20.6 | 19.6 |  |  | 
3 | COc1ccc(N2C(=O)C(Cl)=C(Nc3c(C)n(C)n(-c4ccccc4)c3=O)C2=O)cc1 [Compound 3453-0809] | 82.2 | > 100 |  |  | 
4 | CCOC(=O)CS(=O)(=O)c1nc(-c2ccccc2)cc(C(F)(F)F)n1 [Compound 7663066] | 4.64 | 2.91 |  |  | IC50 [1, 5]: 2.63 µM and 2.4 µM and 5.42 µM and 8.1 µM; IC50 [2, 6]: 1.18 µM and 4.63 µM
5 | CCOC(=O)CCS(=O)(=O)c1nc(-c2ccccc2)cc(C(F)(F)F)n1 [Compound 7914223] | 7.9 | 4 |  |  | 
6 | Cc1cc(NC(=O)CCS(=O)(=O)c2nc(-c3ccccc3)cc(C(F)(F)F)n2)no1 [Compound 7979496] | 14.6 | 9.2 |  |  | 
7 | CCOC(=O)CS(=O)(=O)c1nc(-c2ccc(F)cc2)cc(C(F)(F)F)n1 [Compound 7979975] |  | 1.78 |  |  | IC50 [1, 5]: 1.98 µM and 1.27 µM and 0.695 µM and 1.72 µM and 0.866 µM and 3.33 µM and 4.4 µM and 6.43 µM; IC50 [2, 6]: 1.37 µM and 0.59 µM and 1.5 µM and 2.79 µM and 1.03 µM and 3.41 µM
8 | COc1ccccc1-c1cc(C(F)(F)F)nc(S(=O)(=O)CCCC(=O)N2CCOCC2)n1 [Compound 7990929] | 21.5 | 19.1 |  |  | 
9 | COc1ccccc1-c1cc(C(F)(F)F)nc(S(=O)(=O)CCCC(=O)NC(C)C)n1 [Compound C071-0355] |  |  |  |  | Bfl-1 FPA IC50 (uM) [1, 7]: nodisplacement; Bfl-1 TR-FRET IC50 (uM) [2, 7]: nodisplacement
10 | COc1ccccc1-c1cc(C(F)(F)F)nc(S(=O)(=O)CCCC(=O)N2CCCCC2C)n1 (stereo not drawn) [Compound C071-0367] | 14.7 | 12.8 |  |  | 
11 | COc1ccccc1-c1cc(C(F)(F)F)nc(S(=O)(=O)CCCC(=O)Nc2cc(C)on2)n1 [Compound C071-0415] |  |  |  |  | Bfl-1 FPA IC50 (uM) [1, 7]: nodisplacement; Bfl-1 TR-FRET IC50 (uM) [2, 7]: nodisplacement
12 | Cc1cc(NC(=O)CCCS(=O)(=O)c2nc(-c3cccs3)cc(C(F)(F)F)n2)no1 [Compound C071-0649] | 40.4 | 11.4 |  |  | 
13 | CS(=O)(=O)c1nc(-c2ccccc2)cc(C(F)(F)F)n1 [Compound C164-0003] |  |  |  |  | Bfl-1 FPA IC50 (uM) [1, 7]: nodisplacement; Bfl-1 TR-FRET IC50 (uM) [2, 7]: nodisplacement
14 | CS(=O)(=O)c1nc(-c2cccs2)cc(C(F)(F)F)n1 [Compound C164-0005] | 6.3 | 15.6 |  |  | 
15 | CS(=O)(=O)c1nc(-c2ccco2)cc(C(F)(F)F)n1 [Compound C164-0006] | 7.2 | 6 |  |  | 
16 | COc1ccc(-c2cc(C(F)(F)F)nc(S(C)(=O)=O)n2)c(OC)c1 [Compound C164-0014] | 25.1 | 6.38 |  |  | IC50 [1, 5]: 40.7 µM and 5.92 µM and 27.2 µM and 28.8 µM and 22.9 µM; IC50 [2, 6]: 5.29 µM and 3.73 µM and 10.1 µM
17 | CN1CCN(C2=CC(=O)N(c3ccc(Cl)cc3)C2=O)CC1 [MLS-0066987] |  |  |  |  | Bfl-1 FP assay, activity in words [1]: inactive; Bfl-1 TR-FRET assay, activity in words [2]: inactive
18 | O=C1C(Cl)=C(N2CCCCC2)C(=O)N1c1ccc(Cl)c(Cl)c1 [MLS-0066990] |  |  | 1.3 |  | Bfl-1 FP IC50 (uM) ([1]; Tables 3-5): no fit
19 | CN1CCN(C2CC(=O)N(c3ccc(Cl)c(Cl)c3)C2=O)CC1 (stereo not drawn) [MLS-0066991] |  |  |  |  | Bfl-1 FP assay, activity in words [1]: inactive; Bfl-1 TR-FRET assay, activity in words [2]: inactive
20 | O=C1C(Cl)=C(N2CCOCC2)C(=O)N1c1ccc(Cl)c(Cl)c1 [MLS-0067124] |  |  |  | 1.41 | IC50 ([1]; text b265, read-out: IC50 in the FP assay): 1.4 µM; IC50 ([2]; text b265, read-out: IC50 in the TR-FRET assay): 1.14 µM

Row | SMILES | IC50 [1, 3] [µM] | IC50 [2, 4] [µM] | IC50 [2, 8] [µM] | IC50 [1, 9] [µM] | also measured
21 | O=C1C(Cl)=C(N2CCCC2)C(=O)N1c1ccc(Cl)c(Cl)c1 [MLS-0067126] |  |  |  |  | Bfl-1 FP IC50 (uM) ([1]; Tables 3-5): no fit; Bfl-1 TR FRET IC50 (uM) ([2]; Tables 3-5): no fit
22 | COCCNC1=C(Cl)C(=O)N(c2ccc(Cl)c(Cl)c2)C1=O [MLS-0067127] |  |  | 4.96 | 12.6 | 
23 | O=C1C(Cl)=C(Nc2ccccc2)C(=O)N1c1ccc(Cl)c(Cl)c1 [MLS-0067128] |  |  |  |  | Bfl-1 FP IC50 (uM) ([1]; Tables 3-5): no fit; Bfl-1 TR FRET IC50 (uM) ([2]; Tables 3-5): no fit
24 | CN1CCN(C2=C(Cl)C(=O)N(c3cc(Cl)cc(Cl)c3)C2=O)CC1 [MLS-0090828] |  |  | 1.66 | 2.44 | 
25 | CN1CCN(C2=C(Cl)C(=O)N(c3ccc(Cl)cc3Cl)C2=O)CC1 [MLS-0090829] |  |  | 1.36 | 2.62 | 
26 | CN1CCN(C2=C(Cl)C(=O)N(c3c(Cl)cccc3Cl)C2=O)CC1 [MLS-0090830] |  |  | 3.72 | 13.7 | 
27 | CN1CCN(C2=C(Cl)C(=O)N(c3cccc(Cl)c3Cl)C2=O)CC1 [MLS-0090831] |  |  | 2.56 | 8.74 | 
28 | Cc1ccc(Cl)c(N2C(=O)C(Cl)=C(N3CCN(C)CC3)C2=O)c1Cl [MLS-0090832] |  |  | 11.1 | 23.9 | 
29 | CN1CCN(C2=C(Cl)C(=O)N(c3ccccc3Cl)C2=O)CC1 [MLS-0090833] |  |  | 1.45 | 2.16 | 
30 | CN1CCN(C2=C(Cl)C(=O)N(c3cccc(Cl)c3)C2=O)CC1 [MLS-0090834] |  |  | 1.17 | 2.15 | 
31 | C[C@@H]1CN(C2=C(Cl)C(=O)N(c3ccc(Cl)c(Cl)c3)C2=O)CCN1 [MLS-0090857] |  |  | 1.03 | 1.16 | 
32 | C[C@H]1CN(C2=C(Cl)C(=O)N(c3ccc(Cl)c(Cl)c3)C2=O)CCN1 [MLS-0090858] |  |  | 1.25 | 1.32 | 
33 | O=C1C(Cl)=C(N2CCN(C/C=C/c3ccccc3)CC2)C(=O)N1c1ccc(Cl)c(Cl)c1 [MLS-0090859] |  |  | 0.73 | 0.59 | 
34 | CCN1CCN(C2=C(Cl)C(=O)N(c3ccc(Cl)c(Cl)c3)C2=O)CC1 [MLS-0090860] |  |  | 0.97 | 1.67 | 
35 | O=C1C(Cl)=C(N2CCN(Cc3ccc4c(c3)OCO4)CC2)C(=O)N1c1ccc(Cl)c(Cl)c1 [MLS-0090865] |  |  | 2.14 | 4.07 | 
36 | O=C1C(Cl)=C(N2CCN(Cc3ccccc3)CC2)C(=O)N1c1ccc(Cl)c(Cl)c1 [MLS-0090866] |  |  | 1.64 | 1.62 | 
37 | O=C1C(Cl)=C(N2CCN(c3ncccn3)CC2)C(=O)N1c1ccc(Cl)c(Cl)c1 [MLS-0090868] |  |  | 2.46 | 1.9 | 
38 | O=C1C(Cl)=C(N2CCN(CCO)CC2)C(=O)N1c1ccc(Cl)c(Cl)c1 [MLS-0090874] |  |  | 0.59 | 0.56 | 
39 | CC1C(=O)NCCN1C1=C(Cl)C(=O)N(c2ccc(Cl)c(Cl)c2)C1=O (stereo not drawn) [MLS-0090884] |  |  | 2.03 | 5.63 | 
